Reference: US20140205537A1, “LRRK2 INHIBITORS” (ZENOBIA THERAPEUTICS, INC., priority 2011, published 2014)

Biological target: G2019S LRRK2 (Homo sapiens, UniProt Q5S007, G2019S)
Assay: DiscoveRx KINOMEscan binding constant (Kd)
Design: purchased DiscoveRx (KINOMEscan service); host or cells: E. coli BL21-derived host (T7 phage) or HEK-293
Details: class symbol
Experimental: Compounds of formulas (II), (I), (I-A), (I-B), (I-C), (I-D), (I-D-1), (I-D-2), (I-E), (I-F), (I-G), (I-H), (I-I), (I-I-1), (I-I-2), (I-J), (I-K), (I-L), (I-M), (I-N), (I-Z-1), (I-Z-2), (I-Z-2-a), (I-Z-2-b), (I-Z-2-c), (I-Z-2-d), (I-Z-3-a), (I-Z-3-b), (I-Z-3-c), or (I-Z-3-d) were tested using DiscoveRx's KINOMEscan™ technology to measure a binding constant (Kd) to wild type and G2019S LRRK2. Kinase-tagged T7 phage strains were prepared in an E. coli host derived from the BL21 strain. E. coli were grown to log-phase and infected with T7 phage and incubated with shaking at 32° C. until lysis. The lysates were centrifuged and filtered to remove cell debris. The remaining kinases were produced in HEK-293 cells and subsequently tagged with DNA for qPCR detection. Streptavidin-coated magnetic beads were treated with biotinylated small molecule ligands for 30 minutes at room temperature to generate affinity resins for kinase assays. The liganded beads were blocked with excess biotin and washed with blocking buffer (SeaBlock (Pierce), 1% BSA, 0.05% Tween 20, 1 mM DTT) to remove unbound ligand and to reduce non-specific binding. Binding reactions were assembled by combining kinases, liganded affinity beads, and test compounds in 1× binding buffer (20% SeaBlock, 0.17×PBS, 0.05% Tween 20, 6 mM DTT). All reactions were performed in polystyrene 96-well plates in a final volume of 0.135 ml. The assay plates were incubated at room temperature with shaking for 1 hour and the affinity beads were washed with wash buffer (lx PBS, 0.05% Tween 20). The beads were then re-suspended in elution buffer (lx PBS, 0.05% Tween 20, 0.5 μM non-biotinylated affinity ligand) and incubated at room temperature with shaking for 30 minutes. The kinase concentration in the eluates was measured by qPCR. An 11-point 3-fold serial dilution of each test compound was prepared in 100% DMSO at 100× final test concentration and subsequently diluted to 1× in the assay (final DMSO concentration=[…]). Most Kds were determined using a compound top concentration=30,000 nM.

Sequence of G2019S LRRK2 (Q5S007 whole entry G2019S): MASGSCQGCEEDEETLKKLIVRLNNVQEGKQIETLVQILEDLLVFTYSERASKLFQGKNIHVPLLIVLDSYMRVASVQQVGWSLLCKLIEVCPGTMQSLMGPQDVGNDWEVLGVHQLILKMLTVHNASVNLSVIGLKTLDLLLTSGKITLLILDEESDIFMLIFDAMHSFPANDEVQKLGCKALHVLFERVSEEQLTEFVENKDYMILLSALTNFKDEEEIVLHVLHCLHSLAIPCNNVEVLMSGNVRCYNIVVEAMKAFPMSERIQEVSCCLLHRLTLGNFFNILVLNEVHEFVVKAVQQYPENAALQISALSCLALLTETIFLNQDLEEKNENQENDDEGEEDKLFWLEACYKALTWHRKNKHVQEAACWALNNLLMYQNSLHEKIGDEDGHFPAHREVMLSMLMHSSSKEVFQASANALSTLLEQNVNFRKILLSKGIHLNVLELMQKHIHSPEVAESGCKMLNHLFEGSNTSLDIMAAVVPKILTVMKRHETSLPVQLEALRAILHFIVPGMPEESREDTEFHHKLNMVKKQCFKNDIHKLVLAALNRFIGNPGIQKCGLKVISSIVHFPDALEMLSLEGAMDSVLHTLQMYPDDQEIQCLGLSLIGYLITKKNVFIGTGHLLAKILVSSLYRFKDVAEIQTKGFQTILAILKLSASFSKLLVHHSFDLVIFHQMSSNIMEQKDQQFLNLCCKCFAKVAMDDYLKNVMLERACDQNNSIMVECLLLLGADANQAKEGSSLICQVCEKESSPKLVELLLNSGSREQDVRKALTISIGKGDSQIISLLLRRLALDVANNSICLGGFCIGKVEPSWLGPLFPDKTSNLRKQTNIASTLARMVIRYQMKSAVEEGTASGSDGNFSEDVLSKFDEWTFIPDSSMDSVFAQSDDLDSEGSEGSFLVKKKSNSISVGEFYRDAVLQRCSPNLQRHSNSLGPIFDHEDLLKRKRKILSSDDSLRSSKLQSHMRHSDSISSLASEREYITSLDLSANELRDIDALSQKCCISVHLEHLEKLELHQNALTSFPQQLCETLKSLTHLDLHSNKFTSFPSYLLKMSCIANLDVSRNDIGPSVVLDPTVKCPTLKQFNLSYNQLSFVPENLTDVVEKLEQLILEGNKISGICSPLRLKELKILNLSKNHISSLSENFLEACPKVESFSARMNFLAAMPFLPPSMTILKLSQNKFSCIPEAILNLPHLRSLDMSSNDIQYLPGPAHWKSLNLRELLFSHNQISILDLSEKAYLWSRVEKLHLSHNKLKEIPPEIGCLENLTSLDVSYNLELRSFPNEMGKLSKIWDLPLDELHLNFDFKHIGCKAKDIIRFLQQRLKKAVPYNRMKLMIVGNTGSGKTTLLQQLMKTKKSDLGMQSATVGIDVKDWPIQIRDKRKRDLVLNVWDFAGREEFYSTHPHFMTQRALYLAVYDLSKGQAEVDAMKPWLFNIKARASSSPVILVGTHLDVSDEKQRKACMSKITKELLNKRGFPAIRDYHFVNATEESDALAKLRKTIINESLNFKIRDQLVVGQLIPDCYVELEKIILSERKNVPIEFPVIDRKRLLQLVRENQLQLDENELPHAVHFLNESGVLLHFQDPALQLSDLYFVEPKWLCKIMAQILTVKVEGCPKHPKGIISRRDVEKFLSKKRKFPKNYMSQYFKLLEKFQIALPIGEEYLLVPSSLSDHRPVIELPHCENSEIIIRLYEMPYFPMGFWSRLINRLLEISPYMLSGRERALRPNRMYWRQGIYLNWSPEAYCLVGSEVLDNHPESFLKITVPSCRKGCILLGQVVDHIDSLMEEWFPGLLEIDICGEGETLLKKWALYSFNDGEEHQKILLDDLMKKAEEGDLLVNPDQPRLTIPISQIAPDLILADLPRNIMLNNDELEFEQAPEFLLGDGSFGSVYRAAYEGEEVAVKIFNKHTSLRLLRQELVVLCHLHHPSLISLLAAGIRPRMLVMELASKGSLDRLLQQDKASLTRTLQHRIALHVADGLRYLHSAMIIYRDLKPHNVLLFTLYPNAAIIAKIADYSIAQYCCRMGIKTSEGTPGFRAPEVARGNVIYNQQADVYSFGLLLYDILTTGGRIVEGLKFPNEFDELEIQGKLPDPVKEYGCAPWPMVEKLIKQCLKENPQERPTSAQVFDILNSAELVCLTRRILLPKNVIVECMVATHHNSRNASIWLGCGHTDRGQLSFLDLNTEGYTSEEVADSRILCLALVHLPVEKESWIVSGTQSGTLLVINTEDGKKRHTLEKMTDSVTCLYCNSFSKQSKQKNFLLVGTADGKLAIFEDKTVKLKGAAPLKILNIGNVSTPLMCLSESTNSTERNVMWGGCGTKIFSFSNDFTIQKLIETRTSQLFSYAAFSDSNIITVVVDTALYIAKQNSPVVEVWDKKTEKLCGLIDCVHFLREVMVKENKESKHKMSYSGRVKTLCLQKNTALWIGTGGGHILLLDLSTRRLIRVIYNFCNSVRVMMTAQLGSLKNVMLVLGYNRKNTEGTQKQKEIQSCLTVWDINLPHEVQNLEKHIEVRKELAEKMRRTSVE

Row | SMILES | Kd [nM]
1 | CCc1nnc(/C=C2\C(=O)Nc3ccc(OC)cc32)[nH]1 [Compound 25, (3Z)-3-[(5-ethyl-4H-1,2,4-triazol-3-yl)methylene]-5-methoxy-indolin-2-one] | ≥ 1000
2 | CC(C)Oc1ccc2c(c1F)/C(=C/c1cnc(N3CCOCC3)[nH]1)C(=O)N2 [Compound 38, (3Z)-4-fluoro-5-isopropoxy-3-[(2-morpholino-1H-imidazol-5-yl)methylene]indolin-2-one] | ≥ 1000

Same assay, conditions: numeric value

Row | SMILES | Kd [nM]
3 | C/C(=C1/C(=O)Nc2cc(F)c(OC(C)C)cc21)c1cnc(N2CCOCC2)[nH]1 [Compound 42, (3Z)-6-fluoro-5-isopropoxy-3-[1-(2-morpholino-1H-imidazol-5-yl)ethylidene]indolin-2-one] | 57
4 | CC(C)Cc1ncc(/C=C2\C(=O)Nc3ccc(OC(C)C)cc32)[nH]1 [Compound 22, (3Z)-3-[(2-isobutyl-1H-imidazol-5-yl)methylene]-5-isopropoxy-indolin-2-one] | 32.5
5 | O=C1Nc2ccc(Cl)cc2/C1=C/c1cnc(C2CCN(CCF)CC2)[nH]1 [Compound 33, (3Z)-5-chloro-3-[[2-[1-(2-fluoroethyl)-4-piperidyl]-1H-imidazol-5-yl]methylene]indolin-2-one] | 150
6 | CC(C)Oc1ccc2c(c1)/C(=C/c1cnc(N3CCOCC3)[nH]1)C(=O)N2 [Compound 27, (3Z)-5-isopropoxy-3-[(2-morpholino-1H-imidazol-5-yl)methylene]indolin-2-one] | 15.5
7 | CC(C)Oc1ccc2c(c1)/C(=C/c1cnc(C3CCOCC3)[nH]1)C(=O)N2 [Compound 30, (3Z)-5-isopropoxy-3-[(2-tetrahydropyran-4-yl-1H-imidazol-5-yl)methylene]indolin-2-one] | 28
8 | COc1ccc2c(c1)/C(=C/c1cnc(-c3c(F)cccc3F)[nH]1)C(=O)N2 [Compound 20, (3Z)-3-[[2-(2,6-difluorophenyl)-1H-imidazol-5-yl]methylene]-5-methoxy-indolin-2-one] | 150
9 | O=C1Nc2ccc(O)cc2/C1=C/c1cnc(C2CCOCC2)[nH]1 [Compound 28, (3Z)-5-hydroxy-3-[(2-tetrahydropyran-4-yl-1H-imidazol-5-yl)methylene]indolin-2-one] | 68
10 | O=C1Nc2ccc(Cl)cc2/C1=C/c1cnc(C2CCOCC2)[nH]1 [Compound 32, (3Z)-5-chloro-3-[(2-tetrahydropyran-4-yl-1H-imidazol-5-yl)methylene]indolin-2-one] | 59
11 | COCCc1ncc(/C=C2\C(=O)Nc3ccc(OC)cc32)[nH]1 [Compound 24, (3Z)-5-methoxy-3-[[2-(2-methoxyethyl)-1H-imidazol-5-yl]methylene]indolin-2-one] | 450
12 | CC(C)Oc1ccc2c(n1)/C(=C/c1cnc(C3CCOCC3)[nH]1)C(=O)N2 [Compound 46, (3Z)-5-isopropoxy-3-[(2-tetrahydropyran-4-yl-1H-imidazol-5-yl)methylene]-1H-pyrrolo[3,2-b]pyridin-2-one] | 250
13 | CC(C)Oc1ccc2c(c1)/C(=C/c1cnc(C3CCN(CCF)CC3)[nH]1)C(=O)N2 [Compound 31, (3Z)-3-[[2-[1-(2-fluoroethyl)-4-piperidyl]-1H-imidazol-5-yl]methylene]-5-isopropoxy-indolin-2-one] | 43
14 | CC(C)Oc1ccc2c(c1)/C(=C/c1cnc(N(C)C)[nH]1)C(=O)N2 [Compound 35, (3Z)-3-[[2-(dimethylamino)-1H-imidazol-5-yl]methylene]-5-isopropoxy-indolin-2-one] | 32
15 | CC(C)Oc1ccc2c(c1)/C(=C/c1nnc(C(C)C)[nH]1)C(=O)N2 [Compound 26, (3Z)-5-isopropoxy-3-[(5-isopropyl-4H-1,2,4-triazol-3-yl)methylene]indolin-2-one] | 12500
16 | CC(C)Oc1cc(F)c2c(c1)/C(=C/c1cnc(N3CCOCC3)[nH]1)C(=O)N2 [Compound 36, (3Z)-7-fluoro-5-isopropoxy-3-[(2-morpholino-1H-imidazol-5-yl)methylene]indolin-2-one] | 67
17 | CCc1nnc(/C=C2\C(=O)Nc3ccc(OC)cc32)[nH]1 [Compound 25, (3Z)-3-[(5-ethyl-4H-1,2,4-triazol-3-yl)methylene]-5-methoxy-indolin-2-one] | > 30000
18 | CCc1ccc2c(c1)/C(=C/c1cnc(C3CCOCC3)[nH]1)C(=O)N2 [Compound 29, (3Z)-5-ethyl-3-[(2-tetrahydropyran-4-yl-1H-imidazol-5-yl)methylene]indolin-2-one] | 54
19 | CC(C)Oc1ccc2c(c1)/C(=C/c1ncc(C3CCOCC3)[nH]1)C(=O)N2 [Compound 39, (3Z)-5-isopropoxy-3-[(5-tetrahydropyran-4-yl-1H-imidazol-2-yl)methylene]indolin-2-one] | 123
20 | CC(C)Oc1cc2c(cc1F)NC(=O)/C2=C\c1cnc(N2CCOCC2)[nH]1 [Compound 37, (3Z)-6-fluoro-5-isopropoxy-3-[(2-morpholino-1H-imidazol-5-yl)methylene]indolin-2-one] | 24
21 | CC(C)Oc1cc2c(cc1F)NC(=O)/C2=C\c1cnc(C2CCOCC2)[nH]1 [Compound 41, (3Z)-6-fluoro-5-isopropoxy-3-[(2-tetrahydropyran-4-yl-1H-imidazol-5-yl)methylene]indolin-2-one] | 25
22 | O=C1Nc2ccc(OCCF)cc2/C1=C/c1cnc(C2CCOCC2)[nH]1 [Compound 34, (3Z)-5-(2-fluoroethoxy)-3-[(2-tetrahydropyran-4-yl-1H-imidazol-5-yl)methylene]indolin-2-one] | 47.5
23 | C/C(=C1/C(=O)Nc2ccc(OC(C)C)cc21)c1cnc(N2CCOCC2)[nH]1 [Compound 40, (3Z)-5-isopropoxy-3-[1-(2-morpholino-1H-imidazol-5-yl)ethylidene]indolin-2-one] | 22
24 | CC(C)Oc1ccc2c(c1)/C(=C/c1cnc(C(C)C)[nH]1)C(=O)N2 [Compound 21, (3Z)-5-isopropoxy-3-[(2-isopropyl-1H-imidazol-5-yl)methylene]indolin-2-one] | 16.5
25 | CC(C)Oc1cc2c(cc1F)NC(=O)/C2=C\c1cnc(C2CCN(CCF)CC2)[nH]1 [Compound 43, (3Z)-6-fluoro-3-[[2-[1-(2-fluoroethyl)-4-piperidyl]-1H-imidazol-5-yl]methylene]-5-isopropoxy-indolin-2-one] | 34
26 | CC(C)Oc1ccc2c(c1)/C(=C/c1cnc(CN3CCOCC3)[nH]1)C(=O)N2 [Compound 23, (3Z)-5-isopropoxy-3-[[2-(morpholinomethyl)-1H-imidazol-5-yl]methylene]indolin-2-one] | 420
27 | CCN1CCN(c2ncc(/C=C3\C(=O)Nc4cc(F)c(OC(C)C)cc43)[nH]2)CC1 [Compound 44, (3Z)-3-[[2-(4-ethylpiperazin-1-yl)-1H-imidazol-5-yl]methylene]-6-fluoro-5-isopropoxy-indolin-2-one] | 41
28 | CC(C)Oc1cc2c(cn1)NC(=O)/C2=C\c1cnc(C2CCOCC2)[nH]1 [Compound 45, (3Z)-5-isopropoxy-3-[(2-tetrahydropyran-4-yl-1H-imidazol-5-yl)methylene]-1H-pyrrolo[2,3-c]pyridin-2-one] | 260
